IC50 data for 51 compounds are collected here from BindingDB's records for doi:10.7270/Q2319T8T (The Scripps Research Institute Molecular Screening Center, 2007).

Structures can show the parent of a compound that is named as a salt.

For one assay, the target named is Steroidogenic factor 1 (Homo sapiens, UniProt Q13285). Kind of assay: SF-1 inhibitor potency, dose response, cell-based, CHO-K1, Gal4-SF-1 LBD, luciferase luminescence (AID 600).
Chain of Steroidogenic factor 1 (Q13285 whole entry, the tested form may be a part): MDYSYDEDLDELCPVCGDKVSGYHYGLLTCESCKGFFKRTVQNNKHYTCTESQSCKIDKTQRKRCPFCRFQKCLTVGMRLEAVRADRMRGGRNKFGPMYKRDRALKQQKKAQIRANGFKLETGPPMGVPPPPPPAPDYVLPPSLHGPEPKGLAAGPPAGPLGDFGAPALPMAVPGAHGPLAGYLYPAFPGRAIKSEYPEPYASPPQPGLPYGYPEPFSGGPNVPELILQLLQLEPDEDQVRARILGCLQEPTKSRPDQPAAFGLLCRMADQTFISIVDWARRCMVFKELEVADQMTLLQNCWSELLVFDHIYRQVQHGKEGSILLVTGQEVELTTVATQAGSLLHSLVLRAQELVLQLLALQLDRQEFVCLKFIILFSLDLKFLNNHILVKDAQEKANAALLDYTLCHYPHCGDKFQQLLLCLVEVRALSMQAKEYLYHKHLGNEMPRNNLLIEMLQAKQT
Details: not given
For orientation: IC50 means the midpoint of a concentration-inhibition curve. Low readings indicate higher potency, high ones lower potency. In the case of `Cc1ccc(-c2csc3ncnc(Sc4nnc(CN5CCCCCC5=O)o4)c23)cc1` [1-[[5-[5-(4-methylphenyl)thieno[2,3-d]pyrimidin-4-yl]sulfanyl-1,3,4-oxadiazol-2-yl]methyl]azepan-2-one], the IC50 came out at 5.76 µM. This counts as single-digit micromolar.

On to `Nc1nnnn1N=C/C(Br)=C/c1ccccc1` [1-[[(Z)-2-bromanyl-3-phenyl-prop-2-enylidene]amino]-1,2,3,4-tetrazol-5-amine], for which the IC50 stood at 3.17 µM. Still for that read-out and setting: next, `CCCCn1c2c(c(=O)n(C)c1=O)C(c1ccc(OC)cc1)N1CCCCCC1=N2` (stereo unspecified) [1-butyl-5-(4-methoxyphenyl)-3-methyl-5,7,8,9,10,11-hexahydropyrimido[3,4]pyrimid[4,5-a]azepine-2,4-quinone]: 8.03 µM; `O=C(Nc1ccccc1NC(=O)NC1CCCCC1)NC1CCCCC1` [1-cyclohexyl-3-[2-(cyclohexylcarbamoylamino)phenyl]urea]: 1.64 µM.

In the case of `C=CS(=O)(=O)c1ccc(Oc2ccc(S(=O)(=O)C=C)cc2)cc1` [1-ethenylsulfonyl-4-(4-ethenylsulfonylphenoxy)benzene], the IC50 amounted to 4.19 µM. Same read-out and setting: next, `CCn1nc(-c2cccs2)nc2c(=O)n(C)c(=O)nc1-2` [1-ethyl-6-methyl-3-thiophen-2-yl-pyrimido[5,4-e][1,2,4]triazine-5,7-dione]: 2.65 µM; `[O-][N+]1=c2ccc(Nc3ccccc3)cc2=NC12CCCCC2` [1-oxido-N-phenyl-5-spiro[benzimidazol-1-ium-2,1'-cyclohexane]amine]: 6.49 µM.

Consider `c1ccc(-n2ncc3c(N4CCCCC4)ncnc32)cc1` [1-phenyl-4-(1-piperidinyl)pyrazolo[3,4-d]pyrimidine], for which the IC50 is 5.86 µM. Take `Cc1nc2nc(-c3ccccc3)cn2nc1C` [2,3-dimethyl-6-phenyl-imidazo[1,2-b][1,2,4]triazine]: the IC50 was greater than 11 µM.

Compound `COc1ccc(C(=O)Nc2ccc(C)cn2)c(OC)c1` [2,4-dimethoxy-N-(5-methylpyridin-2-yl)benzamide] registered an IC50 of 3.4 µM. In turn, `COc1cc(NS(=O)(=O)c2ccc(C)cc2C)cc(OC)c1OC` [2,4-dimethyl-N-(3,4,5-trimethoxyphenyl)benzenesulfonamide] showed an IC50 greater than 11 µM.

In the case of `O=C(c1ccccc1)C(CCC(CN1CCOCC1)C(=O)c1ccccc1)CN1CCOCC1` (stereo unspecified) [2,5-bis(4-morpholinylmethyl)-1,6-diphenylhexane-1,6-dione;hydrochloride], the half-inhibitory concentration (IC50) was 10.6 µM. Still for that read-out and setting: next, `Cc1oc2cc3c(C(=O)OCCN(C)C)c(C)oc3cc2c1C(=O)OCCN(C)C` [2,6-Dimethyl-benzo[1,2-b;4,5-b']difuran-3,7-dicarboxylic acid bis-(2-dimethylamino-ethyl) ester]: 0.813 µM; `c1ccc(-c2cn3nc(-c4ccccc4)sc3n2)cc1` [2,6-diphenylimidazo[2,1-b][1,3,4]thiadiazole]: 2.02 µM.

For `O=NC1c2cc(S(=O)(=O)N3CCCCC3)ccc2-c2ccc(S(=O)(=O)N3CCCCC3)cc21` [2,7-Bis-(piperidine-1-sulfonyl)-fluoren-9-one oxime], half-maximal inhibition (IC50) required 1.51 µM. In turn, `COc1cc(C2c3ccc(N)cc3OC(=N)C2C#N)cc(OC)c1OC` (stereo unspecified) [2,7-bis(azanyl)-4-(3,4,5-trimethoxyphenyl)-4H-chromene-3-carbonitrile] gave an IC50 of 7.92 µM. Same read-out and setting: next, `Cn1c(SC2=CS(=O)(=O)c3ccccc32)nc2ccccc21` [2-(1,1-Dioxo-1H-1lambda*6*-benzo[b]thiophen-3-ylsulfanyl)-1-methyl-1H-benzoimidazole]: greater than 3.67 µM; `O=c1c2ccccc2cnn1-c1nc2ccccc2s1` [2-(1,3-benzothiazol-2-yl)-1-phthalazinone]: 2.12 µM; `c1ccc2nc(-c3nc4ccccc4o3)ccc2c1` [2-(1,3-benzoxazol-2-yl)quinoline]: 6.81 µM.

With `COc1ccc(OC)c(NC(=O)CSc2nnnn2-c2ccc3c(c2)OCO3)c1` [2-(1-Benzo[1,3]dioxol-5-yl-1H-tetrazol-5-ylsulfanyl)-N-(2,5-dimethoxy-phenyl)-acetamide], the concentration for half-maximal inhibition (IC50) stood at 2.35 µM. `CCn1c(C)nc2cc(-c3nc4n(n3)Cc3ccccc3-4)ccc21` [2-(1-ethyl-2-methyl-5-benzimidazolyl)-5H-[1,2,4]triazolo[5,1-a]isoindole] returned an IC50 of less than 0.00503 µM. The same measure, in the same setting: the result for `CCN1C=CC(=C2C(=O)c3ccccc3C2=O)C=C1` [2-(1-ethyl-4-pyridinylidene)indene-1,3-dione] reads 0.954 µM. On the same count and under the same terms, next, `O=C1c2ccccc2C(=O)C1c1nccc2ccccc12` [2-(1-isoquinolinyl)indene-1,3-dione]: 4.03 µM. With `CC1(C)CC(=O)C2=C(C1)Oc1nc3ccccc3cc1C2C(C#N)C#N` (stereo unspecified) [2-(1-keto-3,3-dimethyl-4,12-dihydro-2H-chromeno[2,3-b]quinolin-12-yl)malononitrile], the half-inhibitory concentration (IC50) was 7.53 µM. On the same count and under the same terms, the result for `c1c2c(cc3sc(N4CCCCC4)nc13)OCCO2` [2-(1-piperidinyl)-6,7-dihydro-[1,4]dioxino[2,3-f][1,3]benzothiazole] reads 3.91 µM; that for `CCCN1C=CC(=C2C(=O)c3ccccc3C2=O)C=C1` [2-(1-propyl-4-pyridinylidene)indene-1,3-dione], 0.363 µM; that for `Cc1cnc(NC(=O)COc2ccccc2Cl)s1` [2-(2-chloranylphenoxy)-N-(5-methyl-1,3-thiazol-2-yl)ethanamide], greater than 1.22 µM. On the same count and under the same terms, the result for `CCCOc1ccc(-c2nnc(-c3ccco3)o2)cc1` [2-(2-furanyl)-5-(4-propoxyphenyl)-1,3,4-oxadiazole] reads greater than 3.67 µM. `CCOc1ccc(-c2nnc(-c3ccco3)o2)cc1` [2-(2-furyl)-5-p-phenetyl-1,3,4-oxadiazole] gave a half-maximal inhibitory concentration (IC50) of 5.29 µM. `c1ccc2c(c1)CCN(c1nc3cc4c(cc3s1)OCCO4)C2` [2-(3,4-dihydro-1H-isoquinolin-2-yl)-6,7-dihydro-[1,4]dioxino[2,3-f][1,3]benzothiazole] returned an IC50 of 5.34 µM. Still for that read-out and setting: the result for `COc1ccc(CC(=O)Nc2cccc(-c3nnc(-c4cccc(C)c4)o3)c2)cc1OC` [2-(3,4-dimethoxyphenyl)-N-[3-[5-(3-methylphenyl)-1,3,4-oxadiazol-2-yl]phenyl]acetamide] reads greater than 3.67 µM; that for `COc1ccc(CC(=O)Nc2ccc(-c3nnc(-c4ccccc4)o3)cc2)cc1OC` [2-(3,4-dimethoxyphenyl)-N-[4-(5-phenyl-1,3,4-oxadiazol-2-yl)phenyl]acetamide], 2.44 µM; that for `CCOC(=O)c1cnc(-n2nc(C)cc2C)nc1NC(C)c1ccccc1` (stereo unspecified) [2-(3,5-dimethyl-1-pyrazolyl)-4-(1-phenylethylamino)-5-pyrimidinecarboxylic acid ethyl ester], 6.88 µM.

Take `CCOc1ccc(Nc2cc(C)nc(-n3nc(C)cc3C)n2)cc1` [2-(3,5-dimethyl-1-pyrazolyl)-N-(4-ethoxyphenyl)-6-methyl-4-pyrimidinamine]: the IC50 came out at 7.83 µM. On the same count and under the same terms, the result for `Nc1cccc(-c2nc3ccc(N)cc3s2)c1` [2-(3-Amino-phenyl)-benzothiazol-6-ylamine] reads greater than 3.67 µM; that for `Cc1nnc(Sc2nc(Sc3nnc(C)s3)nc(N3CCN(C)CC3)n2)s1` [2-(4-Methyl-piperazin-1-yl)-4,6-bis-(5-methyl-[1,3,4]thiadiazol-2-ylsulfanyl)-[1,3,5]triazine], 2.64 µM; that for `O=C(Cc1ccc(Cl)cc1)Nc1ccc(-c2nnc(-c3ccco3)o2)cc1` [2-(4-chlorophenyl)-N-[4-[5-(2-furanyl)-1,3,4-oxadiazol-2-yl]phenyl]acetamide], 9.18 µM. Compound `COc1ccc(-c2cc3nc4n(c(=O)c3s2)CCC4)cc1` [2-(4-methoxyphenyl)-6,7-dihydropyrrolo[1,2-a]thieno[3,2-d]pyrimidin-9(5H)-one] registered a half-maximal inhibitory concentration (IC50) of 4.32 µM. On the same count and under the same terms, next, `COc1ccc(-c2cc3nc4n(c(=O)c3s2)CCOC4)cc1` [2-(4-methoxyphenyl)-7,8-dihydro-5H-thieno[1,2]pyrimido[4,5-a][1,4]oxazin-10-one]: 6.7 µM; `CC1CCN(c2nc3ccc(C(=O)O)cc3s2)CC1` [2-(4-methyl-1-piperidinyl)-1,3-benzothiazole-6-carboxylic acid]: 2.25 µM; `c1c2c(cc3sc(N4CCOCC4)nc13)OCCO2` [2-(4-morpholinyl)-6,7-dihydro-[1,4]dioxino[2,3-f][1,3]benzothiazole]: greater than 3.67 µM.

`Cc1ccc(N2C(=O)c3ccccc3C2O)nc1` (stereo unspecified) [2-(5-methylpyridin-2-yl)-3-oxidanyl-3H-isoindol-1-one] came in with an IC50 of 8.67 µM. Same read-out and setting: the result for `CCOc1ccc(-c2nc(CSCC(=O)NCc3ccco3)c(C)o2)cc1` [2-({[2-(4-ethoxyphenyl)-5-methyl-1,3-oxazol-4-yl]methyl}thio)-N-(2-furylmethyl)acetamide] reads 0.189 µM.

The assay is the same for the next values; noted with them: inactive by the depositor's call.
With `Cc1ccc(-c2cn3nc(C)c(C)nc3n2)cc1` [2,3-dimethyl-6-(4-methylphenyl)imidazo[1,2-b][1,2,4]triazine], the IC50 worked out at 20 µM.

Compound `c1ccc(-c2cccc(-c3ccccn3)n2)nc1` [2,6-bis(2-pyridinyl)pyridine] registered a half-inhibitory concentration (IC50) of 10.3 µM. In the case of `Cn1c(-c2ccco2)nc2cc3ccccc3cc21` [2-(2-furanyl)-3-methylbenzo[f]benzimidazole], 10.4 µM corresponded to half-maximal inhibition (IC50). `COc1ccccc1CC(=O)N1CCN(c2cccc(C(F)(F)F)c2)CC1` [2-(2-methoxyphenyl)-1-[4-[3-(trifluoromethyl)phenyl]-1-piperazinyl]ethanone] returned an IC50 of 19.7 µM.

For `COc1ccc(Nc2cc(C)nc(-n3nc(C)cc3C)n2)cc1` [2-(3,5-dimethyl-1-pyrazolyl)-N-(4-methoxyphenyl)-6-methyl-4-pyrimidinamine], the IC50 worked out at 12.5 µM. Against the preceding compound, the IC50 is about 1.6-fold lower. On the same count and under the same terms, next, `Cc1csc(NC(=O)Cc2nn(C)c(=O)c3ccccc23)n1` [2-(3-methyl-4-oxidanylidene-phthalazin-1-yl)-N-(4-methyl-1,3-thiazol-2-yl)ethanamide]: 34.3 µM. On the same count and under the same terms, next, `O=C(CSC1=NCCS1)Nc1ccnc2ccccc12` [2-(4,5-dihydro-1,3-thiazol-2-ylsulfanyl)-N-quinolin-4-yl-ethanamide]: 15.1 µM; `COc1ccc(CC(=O)Nc2ccc(-c3nnc(-c4ccccc4)o3)cc2)cc1` [2-(4-methoxyphenyl)-N-[4-(5-phenyl-1,3,4-oxadiazol-2-yl)phenyl]acetamide]: 18.3 µM.
